Results: patent publication US20260199365A1, “BIS-SULFONAMIDE SHIP1 ACTIVATORS” (The Research Foundation for the State University of New York, priority 2022, published 2026)

Key:
[1] = Solubility of the isolated solid in common solvents; format: physicochemical; conditions: DMSO, acetone, methanol, chloroform, and water
Excerpt: While most of the analogs in Table 1 were easy to handle, attempts to isolate the thiomorpholine sulfone 23 were problematic. During the final sulfonamide formation to access 23 an insoluble solid was formed and filtered from the reaction mixture. […] A combustion analysis did match the formula for the desired product, however given the insolubility of this substance it was not evaluated further.

[2] = target: T1, recombinant human truncated SHIP1 (tSHIP1) (Homo sapiens, UniProt Q92835); assay: Malachite Green Phosphatase Release Assay (SHIP1 phosphatase activity); format: biochemical; conditions: for Phosphatase activity in the Malachite Green Assay, analog concentration 125 μM: 125 μM analog; for Phosphatase activity in the Malachite Green Assay, analog concentration 125 μM / Phosphatase activity in the Malachite Green Assay, analog concentration 250 μM / Phosphatase activity in the Malachite Green Assay, analog concentration 500 μM: 100 μM PI(3,4,5)P3-diC8 substrate, normalized to vehicle control (DMSO) = 100%; for Phosphatase activity in the Malachite Green Assay, analog concentration 250 μM: 250 μM analog; for Phosphatase activity in the Malachite Green Assay, analog concentration 500 μM: 500 μM analog, >100% activation, <100% inhibition; for SHIP1 activator activity in the malachite green assay: discussion of Table 4 (125-500 μM); for Malachite (SHIP1), 125 μM / Malachite (SHIP1), 250 μM / Malachite (SHIP1), 500 μM: bis-sulfonamide hybrids
T1 construct: tSHIP1 (SHIP1, residues 397-864) was amplified from pET24TEV-tSHIP1; His tag; made in house; host or cells: E. coli BL21
T1 sequence (Q92835 397-864): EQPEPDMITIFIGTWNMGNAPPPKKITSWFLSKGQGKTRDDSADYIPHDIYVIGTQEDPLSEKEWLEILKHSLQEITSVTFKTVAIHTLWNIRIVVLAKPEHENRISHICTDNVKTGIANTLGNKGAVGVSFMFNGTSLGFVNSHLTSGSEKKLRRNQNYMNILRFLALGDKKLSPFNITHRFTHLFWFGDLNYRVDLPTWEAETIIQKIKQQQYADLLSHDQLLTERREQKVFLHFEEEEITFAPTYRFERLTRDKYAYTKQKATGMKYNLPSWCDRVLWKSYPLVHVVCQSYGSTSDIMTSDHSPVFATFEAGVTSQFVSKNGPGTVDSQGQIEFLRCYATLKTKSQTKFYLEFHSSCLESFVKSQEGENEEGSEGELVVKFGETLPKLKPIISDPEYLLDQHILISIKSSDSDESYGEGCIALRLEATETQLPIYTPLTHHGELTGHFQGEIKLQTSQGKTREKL
Description: ^aPhosphatase activity for SHIP1 and SHIP2 enzyme as determined in the malachite green assay. Results were normalized to the phosphatase activity level from vehicle control (DMSO) used as 100% activity. Values >100% are attributed to activation, while values <100% show inhibition of the enzyme compared to the control. The assay was performed at the indicated concentration of the small molecule with 100 μM PI(3,4,5)P3-diC8 as the substrate. ^bnd=not determined, compound 23 was insoluble.
Cloning and expression of tSHIP1 of truncated human SHIP1 protein (tSHIP1) from human whole blood mRNA have been previously described (see Brooks R, Iyer, S., Akada, H., Neelam, S., Russo, C. M., Chisholm, J. D., and Kerr W. G. Coordinate Expansion of Murine Hematopoietic and Mesenchymal Stem Cell Compartments by SHIPi Stem Cells 2015; 33:848). Briefly, tSHIP1 (SHIP1, residues 397-864) was amplified from pET24TEV-tSHIP1. Plasmids were extracted with Midi Prep (Qiagen) and sequences were verified by sequencing of the entire expression regions. The plasmids were then transformed into E. coli BL21 (New England Biolabs). Fresh colonies were amplified in 1 L LB at 37° C., shaking at 250 rpm until OD600 nm reached 0.6. Protein expression was induced with […] IPTG and incubation was continued at 16° C., shaking at 250 rpm for 16 h. Following centrifugation, bacteria pellets were stored overnight at −20° C. Protein was extracted form bacterial cell pellet using BugBuster HT (Millipore), according to manufacturer's recommendations. The His-tagged protein was purified by FPLC using HisTrapHP 5 ml column (Cytiva Life Sciences) at a 5 ml/min flow rate and 10 mM-1M imidazole gradient in Buffer A (20 mM Tris pH 8.0, 300 mM NaCl, 10 mM imidazole, 5 mM β-mercaptoethanol). Fractions containing active protein by Malachite Green Phosphatase Release Assay (Echelon, see below) were pooled, concentrated and buffer exchanged to reduce imidazole concentration by centrifugation using Pierce Protein Concentrators 30KMWCO PES, (ThermoFisher Scientific). Protein was aliquoted and stored at −80° C. in a mixture of Buffer A (without β-ME) and 50% glycerol.
Malachite Green Phosphatase Release Assays: Malachite Green Phosphatase Release Assays (Echelon Biosciences) were performed with recombinant human truncated SHIP1 (tSHIP1) (Brooks, 2015) and SHIP2 (Echelon Biosciences). Briefly, serial dilutions of the compounds dissolved in DMSO were added to the recombinant enzymes diluted in reaction buffer Rx (50 mM Hepes pH 7.4, 150 mM NaCl, 1 mM MgCl2, 0.25 mM EDTA) in triplicate reactions in 96-well plates. Reactions were incubated for 2 min at room temperature. […] of 1 mM Phosphatidylinositol 3,4,5-trisphosphate diC8 (PI(3,4,5)P3diC8) (Echelon Biosciences) was added to each reaction to a final concentration of 100 μM in a final volume of […]. Following 20 min incubation at 37° C., 100 μL of Malachite Green Solution (Echelon Biosciences) was added to each well and plates were incubated at room temperature in the dark for 15 min. Plates were then read at 620 nm on a plate reader (Synergy 2, BioTek).

[3] = system: IL-6 production in BV-2 cells; assay: ELISA quantitation of IL-6 production in BV-2 cells after stimulation with LPS; format: cell-based, murine; conditions: 1 h pretreatment with SHIP1 activator 10 μM, then LPS
Description: FIG. 3 presents an ELISA quantitation of IL-6 production in BV-2 cells after stimulation with LPS. BV-2 cells were plated and treated for 1 h with vehicle (Veh, 0.25% DMSO) or SHIP1 activator (10 μM in Veh) prior to addition of LPS (100 ng/ml). Unstimulated BV2 cells treated with Veh are shown as an additional control to assess LPS induction of IL-6. (A) Evaluation of 1, 26, 29 and 53. (B) In a separate experiment, 70, and 71 were evaluated under similar conditions. Bars indicate Mean G SEM; statistical tests: two-way ANOVA with Tukey correction, **** p<0.0001, ** p<0.01.
Given this experience, some of the new activators were evaluated in a cell-based setting. Using the immortalized BV-2 cell line, which is derived from murine microglia and retains many microglial morphological and functional characteristics of microglia, an assay for the anti-inflammatory effects of these activators was developed. This assay involved treatment of the cells with lipopolysaccharides (LPS) to induce IL-6 production which can then be quantified with an ELISA.
Cell culture: The BV2 cell line was obtained from the ATCC (American Type Culture Collection). The ATCC and performs genetic validation on deposited cell lines. For the inflammatory cytokines production studies, BV2 cells were cultured in DMEM/F12 (Corning) 10% HI FBS at 37° C. and 5% CO2 in a humidified incubator and split 1:6 every 3 days with Cellstripper™ (Corning). Cells were kept at 37° C. and 5% CO2 in a humidified incubator.
ELISA measurements: Parental (scrambled guide control) BV2 cells were seeded at 5×10^5/mL, […] in 48 well plate. Cell were treated with […] small molecule or vehicle control (0.5% DMSO) and incubated for 1 h before addition of stimuli. LPS (10 ng/ml, E. coli O111: B4, Sigma) was added to the cells and incubated for 6 h to detect IL-6 production. Supernatants were spun down at 400×g for 5 minutes to remove cell debris and froze at −20° C. for ELISAs. IL-6 levels were quantified from cellular supernatants with ELISA MAX™ Standard Set Mouse IL-6 kit (Biolegend), following manufacturer's recommendations. We detected absorbance at 450 nm and removed 570 nm background absorbance, with a plate reader (Synergy 2, BioTek). All experiments were repeated three times and each value was reported as mean±SEM from biological replicates in the same assay. All statistical analysis were performed using GraphPad Prism (version 9.2). Two-way ANOVA was used to analyze all data with two independent variables as time and treatment or concentration and treatment, data is reported as Mean+/−SEM.

Cc1sc(S(=O)(=O)N2CCS(=O)(=O)CC2)cc1NC(=O)CNS(=O)(=O)c1ccc(F)cc1 [Compound 23]
Solubility [1]: insoluble in any solvent

Cc1sc(S(=O)(=O)N2CCCCC2)cc1NC(=O)CNS(=O)(=O)c1ccc(F)cc1 [Compound K368, 2-(4-Fluorobenzenesulfonamido)-N-[2-methyl-5-(piperidine-1-sulfonyl)thiophen-3-yl]acetamide]
Phosphatase activity in the Malachite Green Assay, analog concentration 125 μM [2]: 116% | Phosphatase activity in the Malachite Green Assay, analog concentration 250 μM [2]: 119% | Phosphatase activity in the Malachite Green Assay, analog concentration 500 μM [2]: 128% | SHIP1 activator activity in the malachite green assay [2]: nearly as active as K306 | IL-6 production induced by LPS [3]: especially significant reductions of IL-6 production

CCCCNS(=O)(=O)c1cc(NC(=O)CNS(=O)(=O)c2ccc(F)cc2)c(C)s1 [Compound K382, N-[5-(Butylsulfamoyl)-2-methylthiophen-3-yl]-2-(4-fluorobenzenesulfonamido) acetamide]
Phosphatase activity in the Malachite Green Assay, analog concentration 125 μM [2]: 124% | Phosphatase activity in the Malachite Green Assay, analog concentration 250 μM [2]: 124% | Phosphatase activity in the Malachite Green Assay, analog concentration 500 μM [2]: 122% | IL-6 production induced by LPS [3]: especially significant reductions of IL-6 production

Cc1sc(S(=O)(=O)N2CCSCC2)cc1NC(=O)CNS(=O)(=O)c1ccccc1C(F)(F)F [Compound K403, N-[2-methyl-5-(thiomorpholine-4-sulfonyl)thiophen-3-yl]-2-(2-trifluoromethylbenzenesulfonamido) acetamide]
Phosphatase activity in the Malachite Green Assay, analog concentration 125 μM [2]: 106% | Phosphatase activity in the Malachite Green Assay, analog concentration 250 μM [2]: 108% | Phosphatase activity in the Malachite Green Assay, analog concentration 500 μM [2]: 139% | SHIP1 activator activity in the malachite green assay [2]: good activator activity | IL-6 production induced by LPS [3]: significant activity

Cc1sc(S(=O)(=O)N2CCSCC2)cc1NC(=O)[C@@H]1CCCN1S(=O)(=O)c1ccc(F)cc1 [Compound K408]
Phosphatase activity in the Malachite Green Assay, analog concentration 125 μM [2]: 107% | Phosphatase activity in the Malachite Green Assay, analog concentration 250 μM [2]: 127% | Phosphatase activity in the Malachite Green Assay, analog concentration 500 μM [2]: 130% | SHIP1 activator activity in the malachite green assay [2]: significant activity at 250 μM | IL-6 production induced by LPS [3]: significant decrease in IL-6 formation

Cc1sc(S(=O)(=O)N2CCSCC2)cc1NC(=O)[C@@H](NS(=O)(=O)c1ccc(F)cc1)c1ccccc1 [Compound K409, (2S)-2-(4-Fluorobenzenesulfonamido)-N-[2-methyl-5-(thiomorpholine-4-sulfonyl)thiophen-3-yl]-2-phenylacetamide]
Phosphatase activity in the Malachite Green Assay, analog concentration 125 μM [2]: 94% | Phosphatase activity in the Malachite Green Assay, analog concentration 250 μM [2]: 107% | Phosphatase activity in the Malachite Green Assay, analog concentration 500 μM [2]: 134%

O=C(Nc1ccc(S(=O)(=O)N2CCCCC2)cc1)[C@@H]1CCCN1S(=O)(=O)c1ccccc1C(F)(F)F [Compound K420]
Malachite (SHIP1), 125 μM [2]: 99% | Malachite (SHIP1), 250 μM [2]: 112% | Malachite (SHIP1), 500 μM [2]: 138%

Cc1sc(S(=O)(=O)N2CCCCC2)cc1NC(=O)[C@@H]1CCCN1S(=O)(=O)c1ccccc1C(F)(F)F [Compound K421]
Malachite (SHIP1), 125 μM [2]: 96% | Malachite (SHIP1), 250 μM [2]: 122% | Malachite (SHIP1), 500 μM [2]: 158%

Cc1sc(S(=O)(=O)N2CCCCC2)cc1NC(=O)[C@@H]1CCCN1S(=O)(=O)c1ccc(C(F)(F)F)cc1 [Compound K422]
Malachite (SHIP1), 125 μM [2]: 96% | Malachite (SHIP1), 250 μM [2]: 103% | Malachite (SHIP1), 500 μM [2]: 126%

CCCCNS(=O)(=O)c1ccc(NC(=O)[C@@H]2CCCN2S(=O)(=O)c2ccccc2C(F)(F)F)cc1 [Compound K424]
Malachite (SHIP1), 125 μM [2]: 79% | Malachite (SHIP1), 250 μM [2]: 84% | Malachite (SHIP1), 500 μM [2]: 91%

CCCCNS(=O)(=O)c1ccc(NC(=O)[C@@H]2CCCN2S(=O)(=O)c2ccc(C(F)(F)F)cc2)cc1 [Compound K425]
Malachite (SHIP1), 125 μM [2]: 75% | Malachite (SHIP1), 250 μM [2]: 80% | Malachite (SHIP1), 500 μM [2]: 81%

O=C(CNS(=O)(=O)c1ccc(C(F)(F)F)cc1)Nc1ccc(S(=O)(=O)N2CCCCC2)cc1 [Compound K426]
Malachite (SHIP1), 125 μM [2]: 75% | Malachite (SHIP1), 250 μM [2]: 63% | Malachite (SHIP1), 500 μM [2]: 74%

O=C(CNS(=O)(=O)c1ccccc1C(F)(F)F)Nc1ccc(S(=O)(=O)N2CCCCC2)cc1 [Compound K427]
Malachite (SHIP1), 125 μM [2]: 80% | Malachite (SHIP1), 250 μM [2]: 88% | Malachite (SHIP1), 500 μM [2]: 116%
